The target of assay [1] is FASN (Mus musculus, UniProt P19096). The conditions noted are these: in vivo; cited from earlier work.
In assay [2] the test system is LDHA. Put plainly: Protein expression (quantitative proteomics) in HepG2. It is filed as cell-based, Homo sapiens. The conditions noted are these: HepG2, Sorafenib 1 μM, 24 hours. As for the experimental part:
(§1) Multikinase inhibitor Sorafenib, a first line chemotherapeutic agent for the advanced HCC patients, was used to probe the role of global kinase activity and protein phosphorylation changes associated with this treatment. The HepG2 (ATCC Ascension No. HB-8065) cell line was selected to model HCC cells and the THLE2 (ATCC Ascension No. CRL-10149) cell line was selected to model normal hepatic cells.
The cells were cultured according to the following protocol. Day 1: HepG2/Hep3B—seed 3.2×10^6 cells in T-75 culture flasks; 7.4×10^6 cells in T-175 culture flasks; or 9.5×10^6 cells in T-225 culture flasks. THLE-2—seed 1.3×10^6 cells in T-75 culture flasks. Day 2: 16-24 hours later, at 50-70% confluence—add treatment. Control: DMSO at final concentration of 0.01%. EGF: 500 ng/mL in 10 mM acetic acid. Sorafenib: 1 μM at 0.1% volume in DMSO. Day 3: 24 hours after treatment, harvest cells by trypsinization. Wash pellets 2× with PBS before freezing.
Thus, the phospho proteome affords an additional layer of information that can be used for elucidating the complex relationship between the effect of an extracellular signal (e.g., drug molecule) on kinase activity and total cellular protein, thereby facilitating the identification of disease treatment targets, as well as diagnostic/prognostic markers associated with disease.

Assay [3] has as its target T1, LDHA (Homo sapiens, UniProt P00338).
T1 construct: endogenous in cells; host or cells: HepG2
Put plainly: Global enzyme activity analysis (ATP/ADP probe, LC-MS/MS) in HepG2. It is filed as cell-based. The conditions noted are these: HepG2, Sorafenib 1 μM, 24 hours.
Text: as §1
(§2) FIG. 41B illustrates a method for global enzyme (e.g., kinase) enrichment profiling. First, a cell lysate including the targeted enzyme (e.g., kinase) is parepared. The second step is probe binding (e.g., an ATP probe in the case of kinase). Theny the enzyme is digested and brobe-bound fragments are captured. These fragments can be analyzed (e.g., by LC-MS/MS) and the corresponding protein thus identified (e.g., via a database search of the LC-Ms/MS data).
(§3) THERMO SCIENTIFIC© PIERCE® Kinase Enrichment Kits and ACTIVX© probes (instructions available from THERMO SCIENTIFIC© and PIERCE® Biotechnology www.thermoscientific.com/pierce) were used for global enzyme activity analysis. Briefly, these and similar kits enable selective labeling and enrichment of ATPases including kinases, chaperones and metabolic enzymes. ATP and ADP Probes are generally nucleotide derivatives, which covalently modify the active site of enzymes with conserved lysine residues in the nucleotide-binding site. For example, the structure of desthiobiotin-ATP and -ADP consists of a modified biotin attached to the nucleotide by a labile acyl-phosphate bond. Depending on the position of the lysine within the enzyme active site, either desthiobiotin-ATP or -ADP can be preferred for labeling specific ATPases.
(§4) The cells were cultured according to the following protocol. Day 1: HepG2/Hep3B—seed 3.2×10^6 cells in T-75 culture flasks; 7.4×10^6 cells in T-175 culture flasks; or 9.5×10^6 cells in T-225 culture flasks. THLE-2—seed 1.3×10^6 cells in T-75 culture flasks. Day 2: 16-24 hours later, at 50-70% confluence—add treatment. Control: DMSO at final concentration of 0.01%. EGF: 500 ng/mL in 10 mM acetic acid. […]

The target of assay [4] is T2, PGK1 (Homo sapiens, UniProt P00558).
T2 construct: endogenous in cells; host or cells: HepG2 (ATCC HB-8065)
T2 sequence (P00558 1-417): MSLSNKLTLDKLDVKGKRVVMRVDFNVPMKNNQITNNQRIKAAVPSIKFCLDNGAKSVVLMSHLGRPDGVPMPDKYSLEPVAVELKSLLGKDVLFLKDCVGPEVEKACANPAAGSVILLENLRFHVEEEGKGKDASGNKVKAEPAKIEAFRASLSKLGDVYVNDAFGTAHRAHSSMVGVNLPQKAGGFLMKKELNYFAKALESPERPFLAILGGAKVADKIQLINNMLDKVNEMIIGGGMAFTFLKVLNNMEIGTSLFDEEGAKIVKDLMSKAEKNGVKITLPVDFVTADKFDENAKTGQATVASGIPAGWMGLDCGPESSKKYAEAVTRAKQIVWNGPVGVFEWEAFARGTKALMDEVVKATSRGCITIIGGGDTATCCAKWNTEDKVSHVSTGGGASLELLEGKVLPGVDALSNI
The description is as above. The settings on record: HepG2, Sorafenib 1 μM, 24 hours. It is filed as cell-based.
Text: as §1, §2, §3, §4

The target in assay [5] is T3, ENO1 (Homo sapiens, UniProt P06733).
T3 construct: endogenous in cells; host or cells: HepG2 (ATCC HB-8065)
T3 sequence (P06733 whole entry): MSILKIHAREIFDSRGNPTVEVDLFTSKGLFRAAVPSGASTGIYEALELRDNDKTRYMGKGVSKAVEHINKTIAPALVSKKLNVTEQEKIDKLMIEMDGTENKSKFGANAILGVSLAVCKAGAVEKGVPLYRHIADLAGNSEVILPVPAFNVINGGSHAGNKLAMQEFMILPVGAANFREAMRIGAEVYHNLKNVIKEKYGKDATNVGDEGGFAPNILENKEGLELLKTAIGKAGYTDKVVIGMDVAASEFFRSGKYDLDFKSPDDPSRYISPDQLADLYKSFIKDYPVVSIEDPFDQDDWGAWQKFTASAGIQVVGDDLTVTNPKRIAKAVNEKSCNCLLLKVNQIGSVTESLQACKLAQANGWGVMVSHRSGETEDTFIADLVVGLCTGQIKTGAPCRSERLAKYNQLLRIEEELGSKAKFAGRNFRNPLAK
The description is as above. It is filed as cell-based. The conditions noted are these: HepG2, Sorafenib 1 μM, 24 hours; relative to control, untreated sample.
Text: as §1, §2, §3, §4

Entries after “also recorded” stand apart in the source; their conditions may differ.

Chain of FASN (P19096 whole entry): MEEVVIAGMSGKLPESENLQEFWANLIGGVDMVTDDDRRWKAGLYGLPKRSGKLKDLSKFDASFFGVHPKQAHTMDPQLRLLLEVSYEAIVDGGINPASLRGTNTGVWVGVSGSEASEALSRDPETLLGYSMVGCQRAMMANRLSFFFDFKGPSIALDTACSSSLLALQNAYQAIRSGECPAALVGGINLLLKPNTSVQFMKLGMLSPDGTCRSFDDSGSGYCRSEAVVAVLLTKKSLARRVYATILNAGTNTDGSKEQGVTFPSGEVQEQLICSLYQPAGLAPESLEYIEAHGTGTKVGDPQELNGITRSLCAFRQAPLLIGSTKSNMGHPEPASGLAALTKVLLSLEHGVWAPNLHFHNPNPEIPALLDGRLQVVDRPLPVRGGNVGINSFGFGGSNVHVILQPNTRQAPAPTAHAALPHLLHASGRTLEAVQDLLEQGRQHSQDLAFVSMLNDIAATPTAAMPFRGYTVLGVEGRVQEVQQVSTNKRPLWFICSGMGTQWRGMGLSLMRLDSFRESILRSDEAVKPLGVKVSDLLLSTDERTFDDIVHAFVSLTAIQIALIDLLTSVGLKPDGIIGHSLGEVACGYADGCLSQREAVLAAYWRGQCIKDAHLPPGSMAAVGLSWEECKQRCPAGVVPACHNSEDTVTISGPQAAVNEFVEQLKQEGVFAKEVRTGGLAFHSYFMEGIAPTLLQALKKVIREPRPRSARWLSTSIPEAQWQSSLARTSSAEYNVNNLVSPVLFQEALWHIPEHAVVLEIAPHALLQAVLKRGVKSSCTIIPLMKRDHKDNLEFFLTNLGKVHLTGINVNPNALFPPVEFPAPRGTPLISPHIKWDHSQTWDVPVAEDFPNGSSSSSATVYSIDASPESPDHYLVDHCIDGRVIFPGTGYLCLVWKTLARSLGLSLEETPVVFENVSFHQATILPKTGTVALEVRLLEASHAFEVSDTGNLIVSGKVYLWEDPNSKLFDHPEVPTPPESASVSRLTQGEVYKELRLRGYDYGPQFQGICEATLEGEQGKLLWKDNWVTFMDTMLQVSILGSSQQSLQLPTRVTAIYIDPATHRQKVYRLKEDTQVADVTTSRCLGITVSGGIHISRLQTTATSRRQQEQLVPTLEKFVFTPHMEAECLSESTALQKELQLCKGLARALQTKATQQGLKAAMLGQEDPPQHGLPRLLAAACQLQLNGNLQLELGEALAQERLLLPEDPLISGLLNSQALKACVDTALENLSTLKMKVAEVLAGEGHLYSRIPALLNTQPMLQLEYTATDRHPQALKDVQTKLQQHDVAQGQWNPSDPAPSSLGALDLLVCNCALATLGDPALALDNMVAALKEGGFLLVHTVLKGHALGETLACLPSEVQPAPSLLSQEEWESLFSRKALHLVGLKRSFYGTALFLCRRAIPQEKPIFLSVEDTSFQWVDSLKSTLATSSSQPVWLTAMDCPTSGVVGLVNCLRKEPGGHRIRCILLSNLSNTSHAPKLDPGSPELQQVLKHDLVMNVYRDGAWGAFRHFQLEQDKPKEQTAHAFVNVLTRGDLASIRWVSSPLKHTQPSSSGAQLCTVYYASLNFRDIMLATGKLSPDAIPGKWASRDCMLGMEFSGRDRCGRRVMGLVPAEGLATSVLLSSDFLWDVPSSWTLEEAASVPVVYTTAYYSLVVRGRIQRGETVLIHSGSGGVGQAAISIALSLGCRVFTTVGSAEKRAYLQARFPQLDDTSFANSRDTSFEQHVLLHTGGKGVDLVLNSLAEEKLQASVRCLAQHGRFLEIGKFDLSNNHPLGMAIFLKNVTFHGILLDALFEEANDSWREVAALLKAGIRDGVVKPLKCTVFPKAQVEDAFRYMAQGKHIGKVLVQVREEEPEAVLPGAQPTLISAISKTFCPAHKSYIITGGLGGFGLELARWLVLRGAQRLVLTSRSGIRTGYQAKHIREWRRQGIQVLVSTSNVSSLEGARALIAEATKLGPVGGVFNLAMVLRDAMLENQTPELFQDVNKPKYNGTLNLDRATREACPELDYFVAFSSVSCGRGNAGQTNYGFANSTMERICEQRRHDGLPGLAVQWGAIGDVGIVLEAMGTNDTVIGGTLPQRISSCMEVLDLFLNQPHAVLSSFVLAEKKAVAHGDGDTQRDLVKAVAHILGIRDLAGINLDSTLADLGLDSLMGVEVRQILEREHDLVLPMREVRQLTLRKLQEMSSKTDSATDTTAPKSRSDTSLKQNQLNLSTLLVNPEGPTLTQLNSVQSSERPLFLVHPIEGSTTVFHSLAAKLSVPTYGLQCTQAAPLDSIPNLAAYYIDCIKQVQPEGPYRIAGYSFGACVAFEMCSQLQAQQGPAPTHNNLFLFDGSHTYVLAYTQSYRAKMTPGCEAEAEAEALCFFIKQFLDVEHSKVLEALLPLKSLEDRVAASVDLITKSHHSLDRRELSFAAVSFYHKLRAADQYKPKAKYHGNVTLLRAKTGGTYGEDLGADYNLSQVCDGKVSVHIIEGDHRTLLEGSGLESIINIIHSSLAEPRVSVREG

For `C=C1C(=O)OC(CCCCCCCC)C1C(=O)O` (centres unmarked) [C75], in assay [1], the food intake result was “reducing food intake” and the weight loss result is “weight loss”.

`C/C=C/C/C=C/CCC(=O)[C@H]1O[C@H]1C(N)=O` [Cerulenin]: in assay [1], the food intake entry was “reducing food intake” and the weight loss result is recorded as “weight loss”.

Consider `CNC(=O)c1cc(Oc2ccc(NC(=O)Nc3ccc(Cl)c(C(F)(F)F)c3)cc2)ccn1` [Sorafenib], for which the LDHA protein expression result in assay [2] is recorded as “upregulation”. In addition, in assay [3], the LDHA activity result is reported as “significant decrease; also recorded: downregulating”. The PGK1 activity result in assay [4] is “significant decrease; also recorded: downregulating”. For the same molecule, the ENO1 activity result in assay [5] is given as “significant decrease; also recorded: downregulating”.

(Values after patent publication US12437835B2, “Interrogatory cell-based assays and uses thereof” (Berg LLC, priority 2012, dated 2025).)
